The values that follow are results of earlier work, collected in patent US6900203B2, “Optically active fluorinated vasoconstrictors, methods for making them, and anesthetic formulations comprising them” (Polium Technologies, Inc., priority 2002, dated 2005).

Read-outs that look alike come from different tables or passages of the source.

Series [1] has as its system α2/β adrenergic receptors.
In series [2] the test system is α1/β adrenergic receptors.
The next series deals with α1-receptors. As to conditions: read-out: Receptor affinity α1.
The target of another series is β1 (Homo sapiens, UniProt P08588). The conditions noted are these: read-out: Receptor affinity β1.
Chain of β1 (P08588 whole entry): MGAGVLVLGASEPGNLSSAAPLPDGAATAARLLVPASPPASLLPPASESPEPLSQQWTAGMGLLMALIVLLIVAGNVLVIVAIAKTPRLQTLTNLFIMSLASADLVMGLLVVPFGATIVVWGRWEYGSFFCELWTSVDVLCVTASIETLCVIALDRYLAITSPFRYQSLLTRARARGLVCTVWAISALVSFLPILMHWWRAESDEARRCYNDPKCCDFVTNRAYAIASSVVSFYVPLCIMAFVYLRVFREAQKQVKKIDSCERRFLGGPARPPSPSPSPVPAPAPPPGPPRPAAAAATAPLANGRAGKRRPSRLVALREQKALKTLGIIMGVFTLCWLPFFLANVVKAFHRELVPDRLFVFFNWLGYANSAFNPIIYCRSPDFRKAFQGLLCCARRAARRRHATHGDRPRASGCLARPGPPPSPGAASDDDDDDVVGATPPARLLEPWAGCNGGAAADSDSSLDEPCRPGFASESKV
For the next series, the target named is β2 (Homo sapiens, UniProt P07550). As to conditions: read-out: Receptor affinity β2.
Chain of β2 (P07550 whole entry): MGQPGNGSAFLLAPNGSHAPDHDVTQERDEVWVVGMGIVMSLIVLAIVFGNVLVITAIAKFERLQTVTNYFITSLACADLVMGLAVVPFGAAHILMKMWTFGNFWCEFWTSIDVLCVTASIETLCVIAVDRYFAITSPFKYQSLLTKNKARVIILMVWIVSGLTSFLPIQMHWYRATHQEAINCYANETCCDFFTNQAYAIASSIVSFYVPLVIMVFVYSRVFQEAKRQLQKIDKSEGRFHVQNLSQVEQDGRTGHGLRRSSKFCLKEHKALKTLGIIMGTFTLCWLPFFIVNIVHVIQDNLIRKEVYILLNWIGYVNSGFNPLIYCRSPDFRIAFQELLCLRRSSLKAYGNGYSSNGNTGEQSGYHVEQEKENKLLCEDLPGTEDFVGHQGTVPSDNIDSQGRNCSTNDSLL
A further series deals with α-receptors. As to conditions: order of magnitude.

As to `CNCC(O)c1cc(O)ccc1F` (stereo not shown) [6F-phenylephrine], the α2/β selectivity in series [1] is recorded as 780 fold. In addition, the α1/β selectivity in series [2] was 86-140 fold.
As to `CNC[C@H](O)c1ccc(O)c(O)c1F` [(R)-2F-epinephrine], the Ki at α2-receptors (read-out: Receptor affinity α2) was 0.067 ± 0.003 µM; on α1-receptors, around 25 µM; at β1 it was 0.56 ± 0.03 µM; on β2, 0.11 ± 0.03 µM.
Turning to `CNC[C@H](O)c1cc(O)c(O)cc1F` [(R)-6F-epinephrine, 2-methylamino-1R-[(3,4-dihydroxy-6-fluoro)-phenyl]ethanol], the Ki on α2-receptors (read-out: Receptor affinity α2) is 0.013 ± 0.002 µM; on α1-receptors it was 2.5 ± 0.1 µM; at β1 it was around 100 µM; on β2 it was 38 ± 7 µM.
As to `CNC[C@H](O)c1ccc(O)c(O)c1` [(R)-epinephrine], the Ki was around 0.01 µM at α2-receptors (order of magnitude, read-out: binding constant with respect to α2-receptors) and 0.013 ± 0.002 µM at α2-receptors (read-out: Receptor affinity α2).
Turning to `CNC[C@H](O)c1cccc(O)c1` [(R)-phenylephrine, 2-methylamino-1R-(3-hydroxyphenyl)ethanol], in series [1], the α2/β selectivity is 33 fold. Also, the α1/β selectivity in series [2] is listed as 2-5 fold. Besides, the “binding constants with α-receptors” value at α-receptors was “on the order of several”.
Regarding `CNC[C@@H](O)c1ccc(O)c(O)c1F` [(S)-2F-epinephrine], the Ki is 0.053 ± 0.001 µM at α2-receptors (read-out: Receptor affinity α2), around 40 µM at α1-receptors, around 150 µM on β1 and around 25 µM on β2.
As for `CNC[C@@H](O)c1cc(O)c(O)cc1F` [(S)-6F-epinephrine], the Ki on α2-receptors (read-out: Receptor affinity α2) is 0.078 ± 0.001 µM; at α1-receptors it was around 70 µM; at β1, around 400 µM; at β2, around 90 µM.
Consider `CNC[C@@H](O)c1ccc(O)c(O)c1` [(S)-epinephrine], for which the Ki was 0.045 ± 0.003 µM on α2-receptors (read-out: Receptor affinity α2) and around 20 µM on α1-receptors.
